Laboratory results published in patent publication US20230250096A1, “SUBSTITUTED PHENYL-1H-PYRROLO[2,3-c] PYRIDINE DERIVATIVES” (Janssen Pharmaceutica NV, priority 2021, published 2023).
Like-named read-outs stand apart in the source and are kept apart here.

Experiments:
OCI-AML3 cells = test: Proliferation assay (spheroid confluence, 8 days), OCI-AML3; assay type: cell-based, human; settings: read-out: spheroid assay_OCI-AML3 IC50
Method: The anti-proliferative effect of menin/MLL protein/protein interaction inhibitor test compounds was assessed in human leukemia cell lines. The cell line MOLM14 harbors a MLL translocation and expresses the MLL fusion protein MLL-AF9, respectively, as well as the wildtype protein from the second allele. OCI-AML3 cells that carry the NPM1c gene mutation were also tested. […] KO-52 was used as a control cell line containing two MLL (KMT2A) wildtype alleles in order to exclude compounds that display general cytotoxic effects.
MOLM14 cells were cultured in RPMI-1640 (Sigma Aldrich) supplemented with 10% heat-inactivated fetal bovine serum (HyClone), 2 mM L-glutamine (Sigma Aldrich) and 50 μg/ml gentamycin (Gibco). KO-52 and OCI-AML3 cell lines were propagated in alpha-MEM (Sigma Aldrich) supplemented with 20% heat-inactivated fetal bovine serum (HyClone), 2 mM L-glutamine (Sigma Aldrich) and 50 μg/ml gentamycin (Gibco).
In order to assess the anti-proliferative effects, 200 MOLM14 cells, 200 OCI-AML3 cells or 300 KO-52 cells were seeded in 200 μl media per well in 96-well round bottom, ultra-low attachment plates (Costar, catalogue number 7007). Cell seeding numbers were chosen based on growth curves to ensure linear growth throughout the experiment. Test compounds were added at different concentrations and the DMSO content was normalized to 0.3%. Cells were incubated for 8 days at 37° C. and 5% CO2. Spheroid like growth was measured in real-time by live-cell imaging (IncuCyteZOOM, Essenbio, 4×objective) acquiring images at day 8. Confluence (%) as a measure of spheroid size was determined using an integrated analysis tool.
In order to determine the effect of the test compounds over time, the confluence in each well as a measure of spheroid size, was calculated. Confluence of the highest dose of a reference compound was used as baseline for the LC (Low control) and the confluence of DMSO treated cells was used as 0% cytotoxicity (High Control, HC).
Absolute IC50 values were calculated as percent change in confluence as follows:
LC=Low Control: cells treated with e.g. 1 μM of the cytotoxic agent staurosporin, or e.g. cells treated with a high concentration of an alternative reference compound
HC=High Control: Mean confluence (%) (DMSO treated cells)
% Effect=100−(100*(Sample−LC)/(HC−LC))
GraphPad Prism (version 7.00) was used to calculate the IC50. Dose-response equation was used for the plot of % Effect vs Log10 compound concentration with a variable slope and fixing the maximum to 100% and the minimum to 0%.

KO-52 cells = test: Proliferation assay (spheroid confluence, 8 days), KO-52 control cell line; assay type: cell-based, human; settings: read-out: spheroid assay_KO-52 IC50
Summary of the method: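 Absolute IC50 derived from spheroid confluence imaged on day 8, scaled between DMSO (0%) and a cytotoxic low control such as 1 μM staurosporin, fitted with variable slope, bounds fixed at 0 and 100%. Seeding 200 cells/well (300 for KO-52), ultra-low attachment plates, 0.3% DMSO, 37° C.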

[1] = Homo sapiens, OCI-AML-3, OCI-AML3

Molecule `CC(=O)N1CCC(C(C)N2CCC(Cc3cn(-c4ccc(F)cc4C(=O)N(C)C(C)C)c4cncc(C)c34)C2)CC1` (single isomer, unassigned) [Compound 116a] has an IC50 (OCI-AML3 cells; [1]) of 0.009 µM and an IC50 (KO-52 cells; Homo sapiens) of 3.8 µM.
`Cc1cncc2c1c(C[C@@H]1CCN(C[C@@H]3CCNC(=O)CC3)C1)cn2-c1ccc(F)cc1C(=O)N1[C@H](C)CC[C@H]1C` (single isomer, unassigned) [Compound 352b] gave an IC50 (OCI-AML3 cells; [1]) of 0.263 µM and an IC50 (KO-52 cells; Homo sapiens) of over 15 µM.
Work on `CC(=O)NC1CCC(N2CC[C@@H](Cc3cn(-c4ccc(F)cc4C(=O)N(C)C(C)C)c4cncc(C)c34)C2)CC1` (stereo partly shown) [Compound 201] yielded an IC50 (OCI-AML3 cells; [1]) of 0.035 µM.
In the case of `Cc1cncc2c1c(C[C@@H]1CCN(CC3CCNC(=O)CC3)C1)cn2-c1ccc(F)cc1C(=O)N1CCC[C@H]1C` (single isomer, unassigned) [Compound 353a], the IC50 (OCI-AML3 cells; OCI-AML3) is reported as 0.011 µM and the IC50 (KO-52 cells; Homo sapiens) is reported as over 15 µM.
Work on `CN=S(=O)(c1cc(F)ccc1-n1cc(CC2CCN(CC3CCOCC3)C2)c2c(C)cncc21)C(C)C` (single isomer, unassigned) [Compound 77b] yielded an IC50 (OCI-AML3 cells; [1]) of 0.128 µM and an IC50 (KO-52 cells) of 1.9 µM.
`Cc1cncc2c1c(C[C@@H]1CCN(C[C@H]3CCNC(=O)CC3)C1)cn2-c1ccc(F)cc1C(=O)N1[C@H](C)CC[C@H]1C` (single isomer, unassigned) [Compound 352a] gave an IC50 (OCI-AML3 cells; [1]) of 0.011 µM and an IC50 (KO-52 cells; Homo sapiens) of over 15 µM.
`Cc1cncc2c1c(C[C@@H]1CCN([C@H](CO)C3CCCOC3)C1)cn2-c1ccc(F)cc1C(=O)N(C)C(C)C` (single isomer, unassigned) [Compound 198b] gave an IC50 (OCI-AML3 cells; [1]) of 0.156 µM and an IC50 (KO-52 cells; Homo sapiens) of over 15 µM.
`Cc1cncc2c1c(CC1CCN(CC3CCN(C(=O)[C@@H](C)O)CC3)C1)cn2-c1ccc(F)cc1C(=O)N(C)C(C)C` (single isomer, unassigned) [Compound 85] gave an IC50 (OCI-AML3 cells; [1]) of 0.022 µM and an IC50 (KO-52 cells; Homo sapiens) of 2.2 µM.
`Cc1cncc2c1c(CC1CCN(CC3CCC(=O)N(C)CC3)C1)cn2-c1ccc(F)cc1C(=O)N(C)C(C)C` (single isomer, unassigned) [Compound 184a] showed an IC50 (OCI-AML3 cells; OCI-AML3) of 0.026 µM and an IC50 (KO-52 cells; Homo sapiens) of over 15 µM.
In the case of `Cc1cncc2c1c(C[C@@H]1CCN(CC3CCN(C(=O)C(C)C)CC3)C1)cn2-c1ccc(F)cc1C(=O)N1CCC[C@H]1CO` [Compound 328], the IC50 (OCI-AML3 cells; [1]) is reported as 0.052 µM.
`CC(=O)N1CCC(N2CC[C@H](Cc3cn(-c4ccc(F)cc4C(=O)N(C)C(C)C)c4cncc(C)c34)C2)C(C)C1` (single isomer, unassigned) [Compound 137a] showed an IC50 (OCI-AML3 cells; [1]) of 0.023 µM and an IC50 (KO-52 cells; Homo sapiens) of 1.1 µM.
With `CC(=O)N1CCC(CN2CCC(Cc3cn(-c4ccc(F)cc4C(=O)N(C)C(C)C)c4cncc(C)c34)C2C)CC1` (stereo not shown) [Compound 228] the IC50 (OCI-AML3 cells; [1]) was 0.011 µM and the IC50 (KO-52 cells; Homo sapiens) was 5.8 µM.
For `Cc1cncc2c1c(CC1CCN(CC3CCC(=O)N(C)CC3)C1)cn2-c1ccc(F)cc1C(=O)N(C)C(C)C` (single isomer, unassigned) [Compound 184b], the IC50 (OCI-AML3 cells; OCI-AML3) was 0.138 µM and the IC50 (KO-52 cells) was over 15 µM.
In the case of `Cc1cncc2c1c(C[C@@H]1CCN([C@@H](CO)C3CCCOC3)C1)cn2-c1ccc(F)cc1C(=O)N(C)C(C)C` (single isomer, unassigned) [Compound 198a], the IC50 (OCI-AML3 cells; [1]) is reported as 0.015 µM.
Work on `Cc1cncc2c1c(CC1CCN(CC3CCN(C(=O)C(C)(C)O)CC3)C1)cn2-c1ccc(F)cc1C(=O)N(C)C(C)C` (single isomer, unassigned) [Compound 125] yielded an IC50 (OCI-AML3 cells; [1]) of 0.012 µM and an IC50 (KO-52 cells; Homo sapiens) of 7 µM.
For `CC(=O)N1CCC(C)(CN2CC(Cc3cn(-c4ccc(F)cc4C(=O)N(C)C(C)C)c4cncc(C)c34)C2)CC1` [Compound 84], the IC50 (OCI-AML3 cells; [1]) was 0.12 µM and the IC50 (KO-52 cells; Homo sapiens) was 4.3 µM.
In the case of `Cc1cncc2c1c(CC1CCN(CC3CCN(C(=O)[C@H](C)O)CC3)C1)cn2-c1ccc(F)cc1C(=O)N(C)C(C)C` (single isomer, unassigned) [Compound 86], the IC50 (OCI-AML3 cells; [1]) is reported as 0.023 µM and the IC50 (KO-52 cells; Homo sapiens) is reported as 1.3 µM.
`CC(=O)N1CCC(N2CC[C@H](Cc3cn(-c4ccc(F)cc4C(=O)N(C)C(C)C)c4cncc(C)c34)C2)CC1` (single isomer, unassigned) [Compound 81] was tested, and the IC50 (OCI-AML3 cells; [1]) was 0.1 µM and the IC50 (KO-52 cells; Homo sapiens) was 4 µM.
In the case of `CNC(=O)[C@H]1CC[C@H](CN2CC([C@H](C)c3cn(-c4ccc(F)cc4C(=O)N(C)C(C)C)c4cncc(C)c34)C2)CC1` (single isomer, unassigned) [Compound 164b], the IC50 (OCI-AML3 cells; [1]) is reported as 0.012 µM and the IC50 (KO-52 cells; Homo sapiens) is reported as 10.4 µM.
Molecule `CN=S(=O)(c1cc(F)ccc1-n1cc(CC2CCN(CC3CCOCC3)C2)c2c(C)cncc21)C(C)C` (single isomer, unassigned) [Compound 77d] has an IC50 (KO-52 cells) of over 15 µM.
`CN=[S@](=O)(c1cc(F)ccc1-n1cc(C[C@@H]2CCN(CC3CCN(C(C)=O)CC3)C2)c2c(C)cncc21)C(C)C` (single isomer, unassigned) [Compound 128a] was tested, and the IC50 (KO-52 cells; Homo sapiens) was 7.7 µM.
`CC(=O)N1CCC(CN2CC[C@@H](Cc3cn(-c4ccc(F)cc4C(=O)N4CCC5CC54)c4cncc(C)c34)C2)CC1` (single isomer, unassigned) [Compound 311b] was tested, and the IC50 (KO-52 cells) was over 15 µM.
`Cc1cncc2c1c(CC1CN(C[C@H]3CCOC3)C1)cn2-c1ccc(F)cc1C(=O)N(C)C(C)C` (single isomer, unassigned) [Compound 191a] showed an IC50 (KO-52 cells; Homo sapiens) of 4.6 µM.
`Cc1cncc2c1c(CC1CN(CC3CCOCC3)C1)cn2-c1ccc(F)cc1C(=O)N1CCC[C@H]1C` [Compound 279] was tested, and the IC50 (KO-52 cells; Homo sapiens) was 5.1 µM.
With `Cc1cncc2c1c(CC1CN(CC3CCOCC3)C1)cn2-c1ccc(F)cc1C(=O)N(CCO)C(C)C` [Compound 281] the IC50 (KO-52 cells; Homo sapiens) was 4.2 µM.
Work on `Cc1cncc2c1c(C[C@@H]1CCN(CC3CCC(O)CC3)C1)cn2-c1ccc(F)cc1C(=O)N(C)C(C)C` (single isomer, unassigned) [Compound 205a] yielded an IC50 (KO-52 cells) of 7 µM.
With `COCC(=O)N1CCC(CN2CC[C@@H](Cc3cn(-c4ccc(F)cc4C(=O)N(C)C(C)C)c4cncc(C)c34)C2)CC1` (single isomer, unassigned) [Compound 136] the IC50 (OCI-AML3 cells; [1]) was 0.054 µM and the IC50 (KO-52 cells; Homo sapiens) was 1.4 µM.
With `Cc1cncc2c1c(CC1CN(CC3CCC(O)CC3)C1)cn2-c1ccc(F)cc1C(=O)N(C)C(C)C` (stereo not shown) [Compound 144] the IC50 (KO-52 cells; Homo sapiens) was 6.5 µM.
`COCCN(C)CCC[C@H](C(C)C)N1CC[C@H](Cc2cn(-c3ccc(F)cc3C(=O)N(C)C(C)C)c3cncc(Cl)c23)C1` (single isomer, unassigned) [Compound 4a] was tested, and the IC50 (KO-52 cells; Homo sapiens) was 7.8 µM.
Work on `Cc1cncc2c1c(C[C@@H]1CCN(CC3CCC(O)CC3)C1)cn2-c1ccc(F)cc1C(=O)N(C)C(C)C` (stereo partly shown) [Compound 205] yielded an IC50 (KO-52 cells; Homo sapiens) of 2.5 µM.
Molecule `CC(=O)N1CCC(CN2CC[C@@H](Cc3cn(-c4ccc(F)cc4C(=O)N4CCC5CC54)c4cncc(C)c34)C2)CC1` (single isomer, unassigned) [Compound 311a] has an IC50 (KO-52 cells; Homo sapiens) of 7.7 µM.
`Cc1cncc2c1c(C[C@@H]1CCN(CC3CCC(O)CC3)C1)cn2-c1ccc(F)cc1C(=O)N(C)C(C)C` (single isomer, unassigned) [Compound 205b] was tested, and the IC50 (KO-52 cells) was 3.2 µM.
